Measured values taken from patent US20050085463A1 (priority 2003, published 2005).
“Also recorded” adds a separate entry of the source. Like-named read-outs stand apart in the source and are kept apart here.

How the values were obtained:
[1] = molecular target: T1, α1A (Alpha 1A) adrenergic receptor (Homo sapiens, UniProt P35348); details: R-SAT; nr = no significant antagonist or inverse agonist activity up to 1 μM; nr* = nr but significant agonist activity
T1 sequence (P35348 1-466): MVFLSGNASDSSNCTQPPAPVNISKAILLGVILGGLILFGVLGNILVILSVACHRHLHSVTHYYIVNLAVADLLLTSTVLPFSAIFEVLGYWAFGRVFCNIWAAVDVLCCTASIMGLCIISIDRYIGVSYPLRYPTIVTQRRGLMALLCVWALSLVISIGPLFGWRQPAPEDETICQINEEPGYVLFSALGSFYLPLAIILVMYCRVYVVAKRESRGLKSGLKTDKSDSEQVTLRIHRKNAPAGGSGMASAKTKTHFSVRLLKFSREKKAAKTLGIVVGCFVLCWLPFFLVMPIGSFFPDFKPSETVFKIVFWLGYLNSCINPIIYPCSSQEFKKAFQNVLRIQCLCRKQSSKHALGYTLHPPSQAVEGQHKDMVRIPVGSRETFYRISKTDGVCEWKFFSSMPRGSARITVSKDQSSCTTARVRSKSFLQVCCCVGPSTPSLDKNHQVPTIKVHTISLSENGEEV

5HT6 receptors = 5HT6 receptors (Homo sapiens, UniProt P50406); assay: Ligand binding screen at 10 μM
[2] = Pharmacokinetics after single i.v. or oral dose in rats; format: in vivo, Sprague-Dawley rats; details: rat; for bioavailability: read-out: BA (oral bioavailability)
α2 receptors = assay: Ligand binding screen at 10 μM
5-HT6A receptor = 5-HT6A receptor (Homo sapiens, UniProt P50406); assay: R-SAT inverse agonist assay
M5 muscarinic receptor = molecular target: T2, M5 muscarinic receptor (Homo sapiens, UniProt P08912); assay: R-SAT competitive antagonist assay; details: nr = no significant antagonist or inverse agonist activity up to 1 μM, nr* = nr but significant agonist activity
T2 sequence (P08912 1-532): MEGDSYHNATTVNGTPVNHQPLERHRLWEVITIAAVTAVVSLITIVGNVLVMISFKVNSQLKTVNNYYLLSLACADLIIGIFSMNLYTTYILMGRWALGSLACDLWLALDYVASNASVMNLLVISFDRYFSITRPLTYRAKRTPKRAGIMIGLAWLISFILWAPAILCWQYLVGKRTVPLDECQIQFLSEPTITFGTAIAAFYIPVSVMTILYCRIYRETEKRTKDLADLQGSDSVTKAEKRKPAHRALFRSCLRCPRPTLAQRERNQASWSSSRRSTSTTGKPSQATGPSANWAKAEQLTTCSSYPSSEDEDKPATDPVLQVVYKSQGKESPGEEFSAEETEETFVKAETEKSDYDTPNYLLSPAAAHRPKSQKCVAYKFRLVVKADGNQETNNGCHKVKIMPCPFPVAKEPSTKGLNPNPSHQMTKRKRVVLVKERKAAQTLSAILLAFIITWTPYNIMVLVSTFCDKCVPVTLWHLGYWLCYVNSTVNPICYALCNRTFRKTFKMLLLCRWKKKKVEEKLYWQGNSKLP

[3] = Serum levels during clozapine treatment of schizophrenic patients; format: in vivo, human
Experimental: The analysis was adjusted for baseline level of symptom severity, age, and dose, since dose was not fixed. […] Regarding co-treatment with anticholinergic agents, only two subjects in this sample were treated with benztropine. […] Lastly, ten of the patients in this study were treated with benzodiazepines at the time the levels of clozapine and NDMC were measured.
Patients were classified as treatment resistant or not by standard criteria (Kane et al 1988), and clinical ratings and neuropsychological test scores were obtained by trained raters who were blinded to plasma drug levels.

5-HT7A receptor = 5-HT7A receptor (Homo sapiens, UniProt P34969); assay: R-SAT inverse agonist assay
δ2 receptors = δ2 receptors (Homo sapiens, UniProt P41143); assay: Ligand binding screen at 10 μM
[4] = test system: MAPK in CA1 region of hippocampus (M1 receptor mediated)
[5] = male, Sprague-Dawley, plasma, iv, 1 mg/kg, Plasma concentration after NDMC administration, NDMC i.v. 1 mg/kg, mean ± SD
[6] = male, Sprague-Dawley, plasma, iv, 1 mg/kg, Plasma concentration of compound measured after clozapine administration, clozapine i.v. 1 mg/kg, mean ± SD
[7] = male, Sprague-Dawley, plasma, po, 10 mg/kg, Plasma concentration after NDMC administration, NDMC p.o. 10 mg/kg, mean ± SD, two p.o. groups
[8] = male, Sprague-Dawley, plasma, po, 10 mg/kg, Plasma concentration after NDMC administration, NDMC p.o. 10 mg/kg, mean ± SD
[9] = male, Sprague-Dawley, plasma, po, 10 mg/kg, Plasma concentration of compound measured after clozapine administration, clozapine p.o. 10 mg/kg, mean ± SD
[10] = NDMC p.o. 10 mg/kg, mean ± SD, two p.o. groups, 10 mg/kg
[11] = R-SAT, nr = no significant antagonist or inverse agonist activity up to 1 μM
[12] = clozapine-treated schizophrenics
[13] = clozapine-treated treatment resistant schizophrenics

5-HT7A receptor, sequence (P34969 1-445 isoform P34969-2): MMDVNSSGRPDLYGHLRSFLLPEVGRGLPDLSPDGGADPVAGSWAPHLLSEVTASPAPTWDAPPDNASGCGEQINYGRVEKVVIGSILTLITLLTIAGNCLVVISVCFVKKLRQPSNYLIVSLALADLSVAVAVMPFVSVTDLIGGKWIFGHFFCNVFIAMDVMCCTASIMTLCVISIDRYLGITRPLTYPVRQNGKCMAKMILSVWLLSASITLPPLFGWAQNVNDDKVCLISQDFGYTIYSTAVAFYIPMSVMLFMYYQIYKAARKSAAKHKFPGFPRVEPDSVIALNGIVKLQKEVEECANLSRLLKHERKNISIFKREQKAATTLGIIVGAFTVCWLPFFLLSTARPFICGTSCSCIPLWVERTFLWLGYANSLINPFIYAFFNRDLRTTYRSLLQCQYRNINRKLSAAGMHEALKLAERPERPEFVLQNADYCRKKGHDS
5-HT6A receptor, sequence (P50406 whole entry): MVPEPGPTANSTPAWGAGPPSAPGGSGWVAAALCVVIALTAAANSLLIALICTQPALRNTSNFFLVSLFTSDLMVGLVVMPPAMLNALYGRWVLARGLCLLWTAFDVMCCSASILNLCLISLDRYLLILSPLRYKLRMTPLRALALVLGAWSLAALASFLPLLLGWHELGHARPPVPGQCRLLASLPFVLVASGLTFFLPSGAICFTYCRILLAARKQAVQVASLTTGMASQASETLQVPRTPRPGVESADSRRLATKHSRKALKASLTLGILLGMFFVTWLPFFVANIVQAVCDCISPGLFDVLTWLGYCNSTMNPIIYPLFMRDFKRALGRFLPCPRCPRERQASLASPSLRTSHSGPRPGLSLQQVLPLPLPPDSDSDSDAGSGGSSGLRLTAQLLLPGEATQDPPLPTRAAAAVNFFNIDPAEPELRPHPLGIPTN
δ2 receptors, sequence (P41143 whole entry): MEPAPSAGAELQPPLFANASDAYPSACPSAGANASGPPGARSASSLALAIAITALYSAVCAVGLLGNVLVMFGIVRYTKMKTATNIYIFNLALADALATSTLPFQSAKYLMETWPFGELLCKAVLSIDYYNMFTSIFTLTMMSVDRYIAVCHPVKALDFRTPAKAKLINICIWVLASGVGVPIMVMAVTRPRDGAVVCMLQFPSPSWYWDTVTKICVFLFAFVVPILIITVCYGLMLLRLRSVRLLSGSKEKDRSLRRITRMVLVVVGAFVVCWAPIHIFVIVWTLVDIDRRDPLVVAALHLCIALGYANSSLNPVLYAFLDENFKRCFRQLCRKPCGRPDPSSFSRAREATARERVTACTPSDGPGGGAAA
5HT6 receptors, sequence (P50406 whole entry): as the sequence (P50406 whole entry) above

Question: Which “pKi α1A, competitive antagonist” value [1] does the source give for `Clc1ccc2c(c1)N=C(N1CCNCC1)c1ccccc1N2` [NDMC, 8-chloro-11-(1-piperazinyl)-5H-dibenzo [b,e][1,4] diazepine] here?
Answer: The value was 7.3 ± 0.1.

Question: And the inhibition at 10 µM (5HT6 receptors)?
Answer: Its inhibition at 10 µM is ≥ 90%.

Question: And the half-life ([2]; male, Sprague-Dawley, plasma, iv, 1 mg/kg)?
Answer: Its half-life is 39.3 min.

Question: What about the concentration at 10 min [2, 5] of the same compound?
Answer: The concentration at 10 min was 540 ± 46 ng/mL.

Question: And the concentration at 30 min [2, 5]?
Answer: Its concentration at 30 min is 276 ± 30 ng/mL.

Question: What about the concentration at 60 min [2, 5] of the same compound?
Answer: The concentration at 60 min was 126 ± 38 ng/mL.

Question: What about the concentration at 120 min [2, 5] of the same compound?
Answer: Its concentration at 120 min is 33.7 ± 11.4 ng/mL.

Question: And the concentration at 180 min [2, 5]?
Answer: The concentration at 180 min was 11.7 ± 3.8 ng/mL.

Question: What about the concentration at 240 min [2, 5] of the same compound?
Answer: The concentration at 240 min was 5.3 ± 0.3 ng/mL.

Question: And the concentration at 30 min [2, 6]?
Answer: Its concentration at 30 min is 2.8 ± 1.2 ng/mL.

Question: And the concentration at 60 min [2, 6]?
Answer: The concentration at 60 min was 4 ± 1.5 ng/mL.

Question: What about the concentration at 120 min [2, 6] of the same compound?
Answer: The concentration at 120 min was 2.3 ± 1 ng/mL.

Question: And the concentration at 180 min [2, 6]?
Answer: Its concentration at 180 min is 0.7 ± 0.1 ng/mL.

Question: And the concentration at 240 min [2, 6]?
Answer: Its concentration at 240 min is 0.8 ± 0.6 ng/mL.

Question: And the AUC ([2]; male, Sprague-Dawley, plasma, iv, 1 mg/kg, after NDMC i.v. 1 mg/kg, read-out: Average AUC (converted))?
Answer: Its AUC is 456 ng·h/mL.

Question: What about the Cmax ([2]; male, Sprague-Dawley, plasma, iv, 1 mg/kg, after NDMC i.v. 1 mg/kg, read-out: Cmax) of the same compound?
Answer: The Cmax was 756 ng/mL.

Question: And the Tmax ([2]; male, Sprague-Dawley, plasma, iv, 1 mg/kg, after NDMC i.v. 1 mg/kg, read-out: Tmax)?
Answer: Its Tmax is 0 min.

Question: What about the AUC ([2]; male, Sprague-Dawley, plasma, iv, 1 mg/kg, after clozapine i.v. 1 mg/kg, read-out: Average AUC of compound measured (converted)) of the same compound?
Answer: The AUC was 8.16 ng·h/mL.

Question: And the Cmax ([2]; male, Sprague-Dawley, plasma, iv, 1 mg/kg, after clozapine i.v. 1 mg/kg, read-out: Cmax of compound measured)?
Answer: The Cmax was 3.99 ng/mL.

Question: What about the Tmax ([2]; male, Sprague-Dawley, plasma, iv, 1 mg/kg, after clozapine i.v. 1 mg/kg, read-out: Tmax of compound measured (converted)) of the same compound?
Answer: The Tmax was 60 min.

Question: And the Vd ([2]; male, Sprague-Dawley, plasma, iv, 1 mg/kg, read-out: Vss)?
Answer: The Vd was 1.47 L/kg.

Question: And the concentration at 10 min [2, 7]?
Answer: The concentration at 10 min was 305 ± 101 ng/mL.

Question: What about the concentration at 30 min [2, 7] of the same compound?
Answer: The concentration at 30 min was 582 ± 265 ng/mL.

Question: And the concentration at 60 min [2, 7]?
Answer: Its concentration at 60 min is 481 ± 181 ng/mL.

Question: And the concentration at 120 min [2, 8]?
Answer: Its concentration at 120 min is 227 ± 75 ng/mL.

Question: What about the concentration at 180 min [2, 8] of the same compound?
Answer: Its concentration at 180 min is 170 ± 26 ng/mL.

Question: What about the concentration at 240 min [2, 8] of the same compound?
Answer: The concentration at 240 min was 122 ± 54 ng/mL.

Question: What about the concentration at 120 min [2, 9] of the same compound?
Answer: The concentration at 120 min was 42.5 ± 15.1 ng/mL.

Question: What about the concentration at 180 min [2, 9] of the same compound?
Answer: The concentration at 180 min was 13.4 ± 2.54 ng/mL.

Question: And the concentration at 240 min [2, 9]?
Answer: The concentration at 240 min was 7.1 ± 0.5 ng/mL.

Question: And the AUC ([2]; male, Sprague-Dawley, plasma, po, 10 mg/kg, after NDMC p.o. 10 mg/kg, read-out: Average AUC (converted))?
Answer: The AUC was 1140 ng·h/mL.

Question: And the AUC ([2]; male, Sprague-Dawley, plasma, po, 10 mg/kg, after clozapine p.o. 10 mg/kg, read-out: Average AUC of compound measured (converted))?
Answer: The AUC was 270 ng·h/mL.

Question: What about the Tmax ([2]; male, Sprague-Dawley, plasma, po, 10 mg/kg, after clozapine p.o. 10 mg/kg, read-out: Tmax of compound measured (converted)) of the same compound?
Answer: Its Tmax is 30 min.

Question: And the bioavailability ([2]; male, Sprague-Dawley, serum, oral, 10 mg/kg)?
Answer: The bioavailability was ~25%.

Question: And the Cmax ([2]; male, Sprague-Dawley, serum, po, 10 mg/kg, after NDMC p.o. 10 mg/kg, read-out: Cmax)?
Answer: The Cmax was 582 ng/mL.

Question: What about the Tmax ([2]; male, Sprague-Dawley, serum, po, 10 mg/kg, after NDMC p.o. 10 mg/kg, read-out: Tmax) of the same compound?
Answer: Its Tmax is ≤ 30 min.

Question: What about the Cmax ([2]; male, Sprague-Dawley, serum, po, 10 mg/kg, after clozapine p.o. 10 mg/kg, read-out: Cmax of compound measured) of the same compound?
Answer: Its Cmax is 194 ng/mL.

Question: And the bioavailability ([2]; male, Sprague-Dawley, serum, po, 10 mg/kg)?
Answer: The bioavailability was 25%.

Question: And the “Plasma concentration after NDMC administration, 10 min” value [2, 10]?
Answer: Its value is 277 ± 57 ng/mL.

Question: And the “Plasma concentration after NDMC administration, 30 min” value [2, 10]?
Answer: Its value is 576 ± 161 ng/mL.

Question: What about the “Plasma concentration after NDMC administration, 60 min” value [2, 10] of the same compound?
Answer: The value was 614 ± 60 ng/mL.

Question: And the CLs ([2]; after NDMC i.v. 1 mg/kg)?
Answer: Its CLs is 36.2 mL/min/kg.

Question: What about the “inhibition of binding, α2” value (α2 receptors) of the same compound?
Answer: The value was ≥ 90%.

Question: And the EC50 (5-HT6A receptor)?
Answer: The EC50 was 126 nM.

Question: And the “pEC50 5HT6A, inverse agonist” value (5-HT6A receptor; [11])?
Answer: Its value is 6.9 ± 0.1.

Question: What about the “pKi M5, competitive antagonist” value (M5 muscarinic receptor) of the same compound?
Answer: The value was “nr*”.

Question: What about the “Serum level, All Subjects at 6 Months (92)” value [3, 12] of the same compound?
Answer: The value was 235 ± 190 ng/mL.

Question: And the “Serum level, All Subjects at 6 Weeks (86)” value [3, 12]?
Answer: The value was 194 ± 136 ng/mL.

Question: And the “Serum level, Non-Responders (25)” value [3, 13]?
Answer: Its value is 171 ± 123 ng/mL.

Question: What about the “Serum level, Responders (26)” value [3, 13] of the same compound?
Answer: Its value is 308 ± 243 ng/mL.

Question: What about the “Serum level, All TR Subjects (59)” value ([3]; clozapine-treated treatment resistant schizophrenics, drawn 12 hours after last clozapine dose) of the same compound?
Answer: Its value is 260 ± 203 ng/mL.

Question: What about the EC50 (5-HT7A receptor) of the same compound?
Answer: The EC50 was 50.1 nM.

Question: What about the “pEC50 5HT7A, inverse agonist” value (5-HT7A receptor; [11]) of the same compound?
Answer: Its value is 7.3 ± 0.1.

Question: What about the inhibition at 10 µM (δ2 receptors) of the same compound?
Answer: The inhibition at 10 µM was ≥ 90%.

Question: And the “MAPK activation in CA1 region of hippocampus” value ([4]; s.c. 3, 10, 30 and 100 mg/kg, killed two hours later, phospho-MAPK immunoreactivity)?
Answer: Its value is “stimulation of MAPK activity at all doses in a dose-dependent manner; also recorded: Robust activation was observed, at a dose of 30 mg/kg”.

Question: And the “dose with statistically significant M1 receptor activation (phospho-MAPK)” value ([4]; s.c., optical density of CA1 region, vs vehicle)?
Answer: Its value is ≥ 30 mg/kg.
